Measured values taken from patent US10889546B2, “Alkynyl pyridine prolyl hydroxylase inhibitor, and preparation method and medical use thereof” (Jiangsu Hengrui Medicine Co., Ltd., priority 2015, dated 2021).

Assays:
VEGF = VEGF expression at the cellular level (VEGF kit); format: cell-based; settings: Hep3B human hepatoma cell, 24 h after administration
Procedure: (§1) The test of the activity of some compounds of the present invention on VEGF at the cellular level and EPO at the cellular level is shown as follows. The method is in accordance with Bioorganic & Medicinal Chemistry Letters 23 (2013) 5953-5957, and the test was carried out by using VEGF and EPO kit respectively 24 h after administration.
(§2) Hep3B Cell: Human Hepatoma Cell

EPO = EPO expression at the cellular level (EPO kit); format: cell-based; settings: Hep3B human hepatoma cell, 24 h after administration
Procedure: as §1, §2

Prolyl hydroxylase 2 = Prolyl hydroxylase 2 (Homo sapiens (Human), UniProt Q9GZT9); test: Prolyl hydroxylase 2 inhibition, fluorescence polarization method; format: biochemical; settings: fluorescence polarization, read 1 h after adding the drugs; read-out: Prolyl hydroxylase 2 (IC50 nM)
Sequence of Prolyl hydroxylase 2 (Q9GZT9 whole entry): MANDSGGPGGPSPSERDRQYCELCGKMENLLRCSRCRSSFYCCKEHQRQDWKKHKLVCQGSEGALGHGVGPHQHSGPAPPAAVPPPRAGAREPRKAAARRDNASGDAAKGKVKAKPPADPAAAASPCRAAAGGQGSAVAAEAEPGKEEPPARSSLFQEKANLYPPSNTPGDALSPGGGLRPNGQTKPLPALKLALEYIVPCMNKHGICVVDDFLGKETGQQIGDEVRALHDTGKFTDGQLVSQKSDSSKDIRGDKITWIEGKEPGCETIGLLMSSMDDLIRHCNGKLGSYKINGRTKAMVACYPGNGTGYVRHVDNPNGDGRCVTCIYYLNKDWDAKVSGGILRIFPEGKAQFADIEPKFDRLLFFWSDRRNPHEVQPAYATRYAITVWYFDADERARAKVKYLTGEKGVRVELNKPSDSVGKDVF

IC50 (Prolyl hydroxylase 2) [nM]	SMILES	Whether it can increase the expression of VEGF in cells (VEGF)	Whether it can increase the expression of EPO in cells (EPO)
–	N#Cc1cccc(OCC#Cc2cnc(C(=O)NCC(=O)O)c(O)c2)c1 [Example 49, 2-(3-Hydroxy-5-(3-m-cyanophenoxypropyn-1-yl))picolinamido acetic acid]	Yes	Yes
–	O=C(O)CNC(=O)c1ncc(C#CCOc2cccc(Br)c2)cc1O [Example 48, 2-(3-Hydroxy-5-(3-m-bromophenoxypropyn-1-yl))picolinamido acetic acid]	Yes	Yes
–	O=C(O)CNC(=O)c1ncc(C#CCOc2cccc(OC3CC3)c2)cc1O [Example 41, 2-(3-Hydroxy-5-(3-m-cyclopropoxyphenoxypropyn-1-yl))picolinamido acetic acid]	Yes	Yes
–	O=C(O)CNC(=O)c1ncc(C#CCOc2cccc(Cl)c2Cl)cc1O [Example 61, 2-(3-Hydroxy-5-(3-(2,3-dichlorophenyl)oxypropyn-1-yl))picolinamido acetic acid]	Yes	Yes
–	O=C(O)CNC(=O)c1ncc(C#CCOc2ccc3ccccc3c2)cc1O [Example 58, 2-(3-Hydroxy-5-(3-(naphthalen-2-oxy)propyn-1-yl))picolinamido acetic acid]	Yes	Yes
–	COc1ccc(C#Cc2cc(O)c(C(=O)NCC(=O)O)nc2Cl)cc1 [Example 8, 2-(3-Hydroxy-5-p-methoxyphenylethynyl-6-chloro)picolinamido acetic acid]	Yes	Yes
–	O=C(O)CNC(=O)c1nc(Cl)c(C#CCOc2ccc(C(=O)N3CC3)cc2)cc1O [Example 55]	Yes	Yes
–	CC(NC(=O)c1ncc(C#Cc2ccc(C3CC3)cc2)cc1O)C(=O)O (stereo not shown) [Example 9, 2-(3-Hydroxy-5-p-cyclopropylphenylethynylpyridine)carboxamido propionic acid]	Yes	Yes
–	Cc1nc(C(=O)NCC(=O)O)c(O)cc1C#CCOc1ccc(C2CC2)cc1 [Example 63, 2-(3-Hydroxy-5-(3-p-cyclopropylphenoxypropyn-1-yl)-6-methyl)picolinamido acetic acid]	–	Yes
–	CCc1ccc(NCC#Cc2cnc(C(=O)NCC(=O)O)c(O)c2)cc1 [Example 66, 2-(3-Hydroxy-5-(3-p-ethylanilinopropyn-1-yl))picolinamido acetic acid]	Yes	Yes
378 ± 33.3	CCc1ccc(OCC#Cc2cnc(C(=O)NCC(=O)O)c(O)c2)cc1 [Example 36]	Yes	Yes
–	NC(=O)CNC(=O)c1ncc(C#CCOc2ccc(Cl)cc2)cc1O [Example 28]	Yes	Yes
1220 ± 56	CC(C)(C)C#Cc1cnc(C(=O)NCC(=O)O)c(O)c1 [Example 3, 2-(3-Hydroxy-5-tert-butylethynyl)picolinamido acetic acid]	Yes	Yes
540 ± 3.6	O=C(O)CNC(=O)c1ncc(C#CCOc2ccc(-c3ccccc3)cc2)cc1O [Example 57, 2-(3-Hydroxy-5-(3-p-phenylphenoxypropyn-1-yl))picolinamido acetic acid]	Yes	Yes
–	COc1ccc(C#Cc2cnc(C(=O)NCC(=O)O)c(O)c2)cc1 [Example 16, 2-(3-Hydroxy-5-p-methoxyphenylethynyl)picolinamido acetic acid]	–	Yes
834.9 ± 3.2	O=C(O)CNC(=O)c1ncc(C#CC2CC2)cc1O [Example 4, 2-(3-Hydroxy-5-cyclopropylethynyl)picolinamido acetic acid]	Yes	Yes
–	CN(C)C(=O)c1ccc(C#Cc2cnc(C(=O)NCC(N)=O)c(O)c2)cc1 [Example 23, 2-(3-Hydroxy-5-p-dimethylcarbamoylphenylethynyl)picolinamidoacetamide]	Yes	Yes
–	CC(C)OC(=O)CNC(=O)c1ncc(C#CCOc2ccc(C#N)cc2)cc1O [Example 30, Isopropyl 2-(3-hydroxy-5-(3-p-cyanophenoxypropyn-1-yl))picolinamido acetate]	Yes	Yes

IC50 (Prolyl hydroxylase 2) [nM]	SMILES	Whether it can increase the expression of VEGF in cells (VEGF)	Whether it can increase the expression of EPO in cells (EPO)
820 ± 10.9	O=C(O)CNC(=O)c1ncc(C#Cc2ccccc2)cc1O [Example 5, 2-(3-Hydroxy-5-phenylethynyl)picolinamido acetic acid]	Yes	Yes
–	NC(=O)c1ccc(OCC#Cc2cnc(C(=O)NCC(=O)O)c(O)c2)cc1 [Example 52, 2-(3-Hydroxy-5-(3-p-carbamoylphenoxypropyn-1-yl))picolinamido acetic acid]	–	Yes
–	N#Cc1ccccc1C#Cc1cnc(C(=O)NCC(=O)O)c(O)c1 [Example 20, 2-(3-Hydroxy-5-o-cyanophenylethynyl)picolinamido acetic acid]	Yes	Yes
–	N#Cc1ccc(C#Cc2cnc(C(=O)NCC(=O)O)c(O)c2)cc1 [Example 19, 2-(3-Hydroxy-5-p-cyanophenylethynyl)picolinamido acetic acid]	Yes	Yes
–	CC(=O)Nc1ccc(C#Cc2cnc(C(=O)NCC(=O)O)c(O)c2)cc1 [Example 22, 2-(3-Hydroxy-5-p-acetamidophenylethynyl)picolinamido acetic acid]	Yes	Yes
–	CCc1ccc(OCC#Cc2cnc(C(=O)NCC(=O)OC)c(O)c2)cc1 [Example 29, Methyl 2-(3-hydroxy-5-(3-p-ethylphenoxypropyn-1-yl))picolinamido acetate]	Yes	Yes
515 ± 6.1	O=C(O)CNC(=O)c1ncc(C#CCOc2ccc(C(F)(F)F)cc2)cc1O [Example 42, 2-(3-Hydroxy-5-(3-p-trifluoromethylphenoxypropyn-1-yl))picolinamido acetic acid]	–	–
8130 ± 40.5	O=C(O)CNC(=O)c1ncc(C#Cc2ccc(-c3ccccc3)cc2)cc1O [Example 18, 2-(3-Hydroxy-5-(biphenyl-4-ylethynyl))picolinamido acetic acid]	–	–
–	O=C(O)CNC(=O)c1ncc(C#CCOc2cc(Cl)cc(Cl)c2)cc1O [Example 62, 2-(3-Hydroxy-5-(3-(3,5-dichlorophenyl)oxypropyn-1-yl))picolinamido acetic acid]	Yes	Yes
–	COc1cccc(C#Cc2cnc(C(=O)NCC(=O)O)c(O)c2)c1 [Example 17, 2-(3-Hydroxy-5-m-methoxyphenylethynyl)picolinamido acetic acid]	Yes	Yes
–	Cc1ccc(C#Cc2cc(O)c(C(=O)NCC(=O)O)nc2C)cc1 [Example 7, 2-(3-Hydroxy-5-p-methylphenylethynyl-6-methyl)picolinamido acetic acid]	–	Yes
–	COc1ccc(OCC#Cc2cnc(C(=O)NCC(=O)O)c(O)c2)cc1 [Example 39, 2-(3-Hydroxy-5-(3-p-methoxyphenoxypropyn-1-yl))picolinamido acetic acid]	Yes	Yes
–	COC(=O)CNC(=O)c1ncc(C#Cc2ccccc2)cc1O [Example 6, Methyl 2-(3-hydroxy-5-phenylethynyl)picolinamido acetate]	Yes	Yes
–	CCCCNC(=O)c1ccc(C#Cc2cnc(C(=O)NCC(=O)OC(C)C)c(O)c2)cc1 [Example 25, Isopropyl 2-(3-hydroxy-5-p-butylcarbamoylphenylethynyl)picolinamidoacetate]	Yes	–
–	CC(C)(C)Oc1cccc(OCC#Cc2cnc(C(=O)NCC(=O)O)c(O)c2)c1 [Example 40, 2-(3-Hydroxy-5-(3-m-tert-butoxyphenoxypropyn-1-yl))picolinamido acetic acid]	Yes	Yes
–	CCCCC(=O)Nc1ccc(C#Cc2cnc(C(=O)NCC(=O)OCC3CC3)c(O)c2)cc1 [Example 24, Cyclopropylmethyl 2-(3-hydroxy-5-p-pentanaminophenylethynyl)picolinamidoacetate]	–	Yes
–	O=C(O)CNC(=O)c1ncc(C#CCOc2ccc(C(=O)N3CCCC3)cc2)cc1O [Example 54, 2-(3-Hydroxy-5-(3-(4-(pyrrolidin-1-carbonyl)phenoxy)propyn-1-yl))picolinamido acetic acid]	Yes	Yes
